From the CheMixHub viscosity set
± gives the uncertainty stated by the source.

Assay: xn = mol fraction of the nth substance listed

CC(CC(C)(C)C)CP(=O)([O-])CC(C)CC(C)(C)C.CCCC[P+](C)(CCCC)CCCC (stereo not drawn) + CCCCCCCCCCCC
viscosity [mPa·s], 101 kPa
Conditions	298.15 K	303.15 K	308.15 K	313.15 K	318.15 K	323.15 K
x2 = 0.25	318 ± 15	214 ± 9	159 ± 6	112 ± 4	81.6 ± 2.8	60.6 ± 2.1
x2 = 0.43	88.6 ± 4.3	67.8 ± 2.2	53.6 ± 1.7	41.9 ± 1.3	34.4 ± 1.1	27.1 ± 0.9
x2 = 0.56	39.4 ± 1.2	31 ± 0.9	25.4 ± 0.8	21.7 ± 0.6	18.3 ± 0.5	16.1 ± 0.5

COC(C)=O + CCCCCCCCCCCC
298.15 K, 101.3 kPa
Conditions	viscosity [mPa·s]
x1 = 0.09	1.243 ± 0.011
x1 = 0.213	1.08 ± 0.0095
x1 = 0.3361	0.9577 ± 0.0085
x1 = 0.4514	0.8306 ± 0.0074
x1 = 0.5533	0.7377 ± 0.0067
x1 = 0.6236	0.6777 ± 0.0062
x1 = 0.6972	0.6144 ± 0.0057
x1 = 0.7671	0.557 ± 0.0052
x1 = 0.8924	0.4527 ± 0.0044
x1 = 0.9377	0.4171 ± 0.0041

CCCCCCCC(=O)OCC + CCCCCCCCCCCCCCCC
Conditions	viscosity [mPa·s]
295.04 K, 103 kPa, x2 = 0.5	2.176 ± 0.088
298.65 K, 103 kPa, x2 = 0.25	1.72 ± 0.07
312.63 K, 101 kPa, x2 = 0.5	1.583 ± 0.064

COC(C)=O + CCCCCCCCCCCCCCCC
298.15 K, 101.3 kPa
Conditions	viscosity [mPa·s]
x1 = 0.0393	2.924 ± 0.027
x1 = 0.118	2.619 ± 0.024
x1 = 0.3657	1.819 ± 0.016
x1 = 0.4814	1.491 ± 0.013
x1 = 0.5357	1.35 ± 0.012
x1 = 0.652	1.086 ± 0.0096
x1 = 0.7625	0.8431 ± 0.0076
x1 = 0.8682	0.6349 ± 0.0059
x1 = 0.9609	0.4379 ± 0.0043

COCCOC + CCCCCCCCCO
101 kPa
Conditions	viscosity [mPa·s]
293.15 K, x1 = 0.05508	9.45 ± 0.12
293.15 K, x1 = 0.1012	7.813 ± 0.1
293.15 K, x1 = 0.2007	5.336 ± 0.068
293.15 K, x1 = 0.2922	3.86 ± 0.047
293.15 K, x1 = 0.393	2.747 ± 0.033
293.15 K, x1 = 0.494	1.994 ± 0.023
293.15 K, x1 = 0.5924	1.477 ± 0.016
293.15 K, x1 = 0.7015	1.076 ± 0.012
293.15 K, x1 = 0.7986	0.812 ± 0.009
293.15 K, x1 = 0.907	0.588 ± 0.006
293.15 K, x1 = 0.9472	0.524 ± 0.006
303.15 K, x1 = 0.04903	6.486 ± 0.087
303.15 K, x1 = 0.1035	5.323 ± 0.07
303.15 K, x1 = 0.2044	3.716 ± 0.047
303.15 K, x1 = 0.2954	2.745 ± 0.034
303.15 K, x1 = 0.3981	1.979 ± 0.024
303.15 K, x1 = 0.4938	1.485 ± 0.017
303.15 K, x1 = 0.5991	1.098 ± 0.012
303.15 K, x1 = 0.7049	0.816 ± 0.009
303.15 K, x1 = 0.7958	0.643 ± 0.007
303.15 K, x1 = 0.902	0.492 ± 0.005
303.15 K, x1 = 0.9436	0.446 ± 0.005
313.15 K, x1 = 0.05382	4.747 ± 0.064
313.15 K, x1 = 0.1054	4 ± 0.053
313.15 K, x1 = 0.2052	2.936 ± 0.037
313.15 K, x1 = 0.2949	2.233 ± 0.028
313.15 K, x1 = 0.3955	1.66 ± 0.02
313.15 K, x1 = 0.4901	1.279 ± 0.015
313.15 K, x1 = 0.5829	1.007 ± 0.011
313.15 K, x1 = 0.7	0.739 ± 0.008
313.15 K, x1 = 0.8016	0.58 ± 0.006
313.15 K, x1 = 0.9013	0.457 ± 0.005
313.15 K, x1 = 0.9469	0.41 ± 0.004
